Assay results taken from patent publication US20250326749A1, “COMPOUNDS, COMPOSITIONS, AND METHODS OF USING THEREOF” (Sionna Therapeutics Inc., priority 2022, published 2025).
One block for each molecule: values may come before it.

Target: T1, ΔF508-CFTR (Homo sapiens, UniProt P13569, DEL508-508)
T1 construct: expressed in transfected cells; host or cells: CFSMEo- (human CF submucosal gland epithelial cells, ΔF508/Q2X), transiently transfected by nucleofection
Assay: ΔF508-CFTR-HRP trafficking assay (cell surface expression of ΔF508-CFTR)
Format: cell-based
Details: CFSMEo- cells transiently transfected with ΔF508-CFTR-HRP; test agent 3 μM, 48 h; HRP chemiluminescence
Summary of the method: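 Surface-expressed ΔF508-CFTR measured via extracellular HRP tag: cell-impermeable chemiluminescent substrate, 5 min, signal normalized to 0.3% DMSO vehicle.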

T1 sequence (P13569 with tags, fused parts or gaps DEL508-508): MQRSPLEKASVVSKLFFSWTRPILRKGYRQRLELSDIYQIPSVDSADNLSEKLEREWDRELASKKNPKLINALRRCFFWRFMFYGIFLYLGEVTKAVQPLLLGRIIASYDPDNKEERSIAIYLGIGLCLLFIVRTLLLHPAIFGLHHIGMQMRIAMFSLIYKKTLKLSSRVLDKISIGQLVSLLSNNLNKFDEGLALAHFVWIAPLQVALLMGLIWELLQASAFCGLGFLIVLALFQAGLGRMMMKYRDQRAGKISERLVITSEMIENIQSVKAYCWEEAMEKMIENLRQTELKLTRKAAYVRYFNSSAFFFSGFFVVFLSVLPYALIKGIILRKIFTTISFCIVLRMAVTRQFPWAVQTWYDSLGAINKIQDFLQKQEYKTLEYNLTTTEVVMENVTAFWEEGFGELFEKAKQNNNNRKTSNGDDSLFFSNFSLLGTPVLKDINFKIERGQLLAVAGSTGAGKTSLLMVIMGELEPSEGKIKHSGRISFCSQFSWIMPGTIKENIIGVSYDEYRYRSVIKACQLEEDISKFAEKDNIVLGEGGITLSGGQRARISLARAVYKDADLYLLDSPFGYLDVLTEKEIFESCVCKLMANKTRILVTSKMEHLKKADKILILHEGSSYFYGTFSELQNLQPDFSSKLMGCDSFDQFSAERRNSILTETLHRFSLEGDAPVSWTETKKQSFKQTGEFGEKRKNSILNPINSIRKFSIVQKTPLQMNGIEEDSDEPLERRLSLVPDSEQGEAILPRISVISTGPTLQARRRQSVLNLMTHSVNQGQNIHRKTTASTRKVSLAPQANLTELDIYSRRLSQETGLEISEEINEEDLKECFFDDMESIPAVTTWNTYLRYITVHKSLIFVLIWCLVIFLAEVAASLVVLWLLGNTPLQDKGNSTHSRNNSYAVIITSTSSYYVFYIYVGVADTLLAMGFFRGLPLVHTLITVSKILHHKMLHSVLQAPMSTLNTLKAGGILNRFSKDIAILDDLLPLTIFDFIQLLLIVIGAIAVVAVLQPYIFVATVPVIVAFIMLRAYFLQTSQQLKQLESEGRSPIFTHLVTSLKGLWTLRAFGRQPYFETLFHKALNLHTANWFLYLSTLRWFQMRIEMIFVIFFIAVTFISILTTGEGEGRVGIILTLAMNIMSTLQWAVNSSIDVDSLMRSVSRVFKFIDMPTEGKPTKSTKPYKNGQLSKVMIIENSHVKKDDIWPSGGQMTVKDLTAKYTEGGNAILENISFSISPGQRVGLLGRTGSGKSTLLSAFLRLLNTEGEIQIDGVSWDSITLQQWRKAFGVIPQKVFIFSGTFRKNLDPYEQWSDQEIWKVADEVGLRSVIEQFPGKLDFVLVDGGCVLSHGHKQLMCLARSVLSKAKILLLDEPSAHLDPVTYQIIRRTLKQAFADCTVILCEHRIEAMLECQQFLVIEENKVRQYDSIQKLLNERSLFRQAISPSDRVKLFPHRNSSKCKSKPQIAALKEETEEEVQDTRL

SMILES: C[C@H](Oc1cc(-n2nc(C(F)(F)F)c3c2[C@@H](Oc2ccc(-c4nc(=O)o[nH]4)cc2)CCC3)ccn1)c1ccc2c(c1)OC(F)(F)O2 (single isomer, unassigned) [Example 112]
RLUs: ΔF508-CFTR-HRP trafficking data normalized to the vehicle treated control (0.3% DMSO): A (RLU 5.0 μM-10 μM)

SMILES: C[C@H](Oc1cccc(-c2nn(CC(F)(F)F)c3c2[C@@H](Oc2ccc(C(=O)O)cc2)CCC3)n1)c1ccc2c(c1)OC(F)(F)O2 (single isomer, unassigned) [Example 126]
RLUs: ΔF508-CFTR-HRP trafficking data normalized to the vehicle treated control (0.3% DMSO): A (RLU 5.0 μM-10 μM)

SMILES: C[C@H](Oc1cc(-n2nc(C(F)(F)F)c3c2[C@@H](OC24CCC(C(=O)O)(CC2)CC4)CCC3)cnc1F)c1ccc2c(c1)OC(F)(F)O2 (single isomer, unassigned) [Example 59]
RLUs: ΔF508-CFTR-HRP trafficking data normalized to the vehicle treated control (0.3% DMSO): C (RLU 0.0 μM-3.5 μM)

SMILES: C[C@H](Oc1cncc(-n2nc(C(F)(F)F)c3c2C(Nc2ccc(C(=O)O)cc2)CCC3)c1)c1ccc2c(c1)OC(F)(F)O2 (stereo partly drawn) [Example 69, 4-[[1-[5-[(1S)-1-(2,2-difluoro-1,3-benzodioxol-5-yl)ethoxy]-3-pyridyl]-3-(trifluoromethyl)-4,5,6,7-tetrahydroindazol-7-yl]amino]benzoic acid]
RLUs: ΔF508-CFTR-HRP trafficking data normalized to the vehicle treated control (0.3% DMSO): B (RLU 3.5 μM-5.0 μM)

SMILES: C[C@H](Nc1nc(-n2nc(C(F)(F)F)c3c2[C@@H](OC24CC(C(=O)O)(C2)C4)CCC3)ccc1F)c1ccc2c(c1)OC(F)(F)O2 (single isomer, unassigned) [101 (P1)]
RLUs: ΔF508-CFTR-HRP trafficking data normalized to the vehicle treated control (0.3% DMSO): C (RLU 0.0 μM-3.5 μM)

SMILES: CC(C)n1nc(-c2ccnc(N[C@@H](C)c3ccc4c(c3)OC(F)(F)O4)c2)c2c1CCC[C@@H]2Oc1ccc(C(=O)O)cc1 (single isomer, unassigned) [Example 128]
RLUs: ΔF508-CFTR-HRP trafficking data normalized to the vehicle treated control (0.3% DMSO): B (RLU 3.5 μM-5.0 μM)

SMILES: C[C@H](Oc1nc(-n2nc(C(F)(F)F)c3c2[C@@H](Oc2ccc(C(=O)O)cc2)CCC3)ccc1F)c1cc2c(cc1F)OC(F)(F)O2 (single isomer, unassigned) [Example 36m]
RLUs: ΔF508-CFTR-HRP trafficking data normalized to the vehicle treated control (0.3% DMSO): A (RLU 5.0 μM-10 μM)

SMILES: C[C@H](Oc1cc(-n2nc(C(F)(F)F)c3c2N(CC24CC(C(=O)O)(C2)C4)CCC3)cnn1)c1ccc2c(c1)OC(F)(F)O2 (single isomer, unassigned) [Example 6]
RLUs: ΔF508-CFTR-HRP trafficking data normalized to the vehicle treated control (0.3% DMSO): C (RLU 0.0 μM-3.5 μM)

SMILES: C[C@H](Nc1cc(-n2nc(C#N)c3c2[C@@H](OC24CC(C(=O)O)(C2)C4)CCC3)ccc1F)c1ccc2c(c1)OC(F)(F)O2 (single isomer, unassigned) [106 (P1)]
RLUs: ΔF508-CFTR-HRP trafficking data normalized to the vehicle treated control (0.3% DMSO): B (RLU 3.5 μM-5.0 μM)

SMILES: C[C@H](Nc1nc(-n2nc(C(F)(F)F)c3c2[C@H](OC24CC(C(=O)O)(C2)C4)CCC3)ccc1F)c1ccc2c(c1)OC(F)(F)O2 (single isomer, unassigned) [101 (P2)]
RLUs: ΔF508-CFTR-HRP trafficking data normalized to the vehicle treated control (0.3% DMSO): C (RLU 0.0 μM-3.5 μM)

SMILES: C[C@H](Oc1cncc(-n2nc(C(F)(F)F)c3c2N(Cc2ccc(C(=O)O)cc2)CCC3)c1)c1ccc2c(c1)OC(F)(F)O2 (single isomer, unassigned) [Example 12]
RLUs: ΔF508-CFTR-HRP trafficking data normalized to the vehicle treated control (0.3% DMSO): C (RLU 0.0 μM-3.5 μM)

SMILES: C[C@H](Nc1cccc(-n2nc(C(F)(F)F)c3c2[C@@H](OC24CC(C(=O)O)(C2)C4)CCC3)n1)c1ccc2c(c1)OC(F)(F)O2 (single isomer, unassigned) [100 (P1)]
RLUs: ΔF508-CFTR-HRP trafficking data normalized to the vehicle treated control (0.3% DMSO): A (RLU 5.0 μM-10 μM)

SMILES: C[C@H](Oc1cc(-n2nc(C(F)(F)F)c3c2C(O[C@H]2CC[C@H](C(=O)O)CC2)CCC3)cnc1F)c1ccc2c(c1)OC(F)(F)O2 (stereo in doubt) [79 (P2), 4-[[(7R)-1-[5-[(1S)-1-(2,2-difluoro-1,3-benzodioxol-5-yl)ethoxy]-6-fluoro-3-pyridyl]-3-(trifluoromethyl)-4,5,6,7-tetrahydroindazol-7-yl]oxy]cyclohexanecarboxylic acid]
RLUs: ΔF508-CFTR-HRP trafficking data normalized to the vehicle treated control (0.3% DMSO): A (RLU 5.0 μM-10 μM)

Further lines, results first:

RLUs: ΔF508-CFTR-HRP trafficking data normalized to the vehicle treated control (0.3% DMSO): B (RLU 3.5 μM-5.0 μM)
SMILES: C[C@H](Oc1cncc(-n2nc(C(F)(F)F)c3c2N(C[C@H]2CC[C@H](C(=O)O)CC2)CCC3)c1)c1ccc2c(c1)OC(F)(F)O2 [Example 13, Trans-4-[[1-[5-[(1S)-1-(2,2-difluoro-1,3-benzodioxol-5-yl)ethoxy]-3-pyridyl]-3-(trifluoromethyl)-5,6-dihydro-4H-pyrazolo[3,4-b]pyridine-7-yl]methyl]cyclohexanecarboxylic acid]

RLUs: ΔF508-CFTR-HRP trafficking data normalized to the vehicle treated control (0.3% DMSO): B (RLU 3.5 μM-5.0 μM)
SMILES: Cc1cc(OC2CCCc3c(C(F)(F)F)nn(-c4cccc(O[C@@H](C)c5cc6c(cc5F)OC(F)(F)O6)c4)c32)ccc1C(=O)O (stereo partly drawn) [Example 35]

RLUs: ΔF508-CFTR-HRP trafficking data normalized to the vehicle treated control (0.3% DMSO): C (RLU 0.0 μM-3.5 μM)
SMILES: C[C@H](Oc1cc(-n2nc(C(F)(F)F)c3c2[C@H](OC24CC(C(=O)O)(C2)C4)CCC3)ccc1F)c1ccc2c(c1)OC(F)(F)O2 (single isomer, unassigned) [76 (P2)]

RLUs: ΔF508-CFTR-HRP trafficking data normalized to the vehicle treated control (0.3% DMSO): C (RLU 0.0 μM-3.5 μM)
SMILES: CC[C@H](Nc1cc(-n2nc(C(F)(F)F)c3c2[C@@H](Oc2ccc(C(=O)O)cc2)CCC3)ccn1)c1ccc2c(c1)OC(F)(F)O2 (single isomer, unassigned) [Example 88]

RLUs: ΔF508-CFTR-HRP trafficking data normalized to the vehicle treated control (0.3% DMSO): A (RLU 5.0 μM-10 μM)
SMILES: C[C@H](Oc1cc(-n2nc(C(F)(F)F)c3c2N(CC24CCC(C(=O)O)(CC2)CC4)CCC3)ccn1)c1ccc2c(c1)OC(F)(F)O2 (single isomer, unassigned) [Example 9]

RLUs: ΔF508-CFTR-HRP trafficking data normalized to the vehicle treated control (0.3% DMSO): C (RLU 0.0 μM-3.5 μM)
SMILES: C[C@H](Nc1ccc(F)c(-n2nc(C(F)(F)F)c3c2[C@H](OC24CC(C(=O)O)(C2)C4)CCC3)c1)c1ccc2c(c1)OC(F)(F)O2 (single isomer, unassigned) [99 (P2)]

RLUs: ΔF508-CFTR-HRP trafficking data normalized to the vehicle treated control (0.3% DMSO): A (RLU 5.0 μM-10 μM)
SMILES: C[C@H](Oc1cncc(-n2nc(C(F)(F)F)c3c2[C@@H](O[C@H]2CC[C@H](C(=O)O)CC2)CCC3)c1)c1ccc2c(c1)OC(F)(F)O2 (single isomer, unassigned) [Example 66]

RLUs: ΔF508-CFTR-HRP trafficking data normalized to the vehicle treated control (0.3% DMSO): B (RLU 3.5 μM-5.0 μM)
SMILES: C[C@H](Oc1cncc(-n2nc(C(F)(F)F)c3c2[C@H](OC24CCC(C(=O)O)(CC2)CC4)CCC3)c1)c1ccc2c(c1)OC(F)(F)O2 (single isomer, unassigned) [Example 58]

RLUs: ΔF508-CFTR-HRP trafficking data normalized to the vehicle treated control (0.3% DMSO): C (RLU 0.0 μM-3.5 μM)
SMILES: C[C@H](Oc1cc(-n2nc(C(F)(F)F)c3c2[C@H](OC24CCC(C(=O)O)(CC2)CC4)CCC3)ccn1)c1ccc2c(c1)OC(F)(F)O2 (single isomer, unassigned) [Example 65]

RLUs: ΔF508-CFTR-HRP trafficking data normalized to the vehicle treated control (0.3% DMSO): C (RLU 0.0 μM-3.5 μM)
SMILES: C[C@H](Nc1cccc(-n2nc(C(F)(F)F)c3c2[C@H](OC24CC(C(=O)O)(C2)C4)CCC3)c1)c1cc2c(cc1F)OC(F)(F)O2 (single isomer, unassigned) [97 (P2)]

RLUs: ΔF508-CFTR-HRP trafficking data normalized to the vehicle treated control (0.3% DMSO): C (RLU 0.0 μM-3.5 μM)
SMILES: C[C@H](Oc1cc(-n2nc(C(F)(F)F)c3c2[C@@H](OC24CC(C(=O)O)(C2)C4)CCC3)ccc1F)c1ccc2c(c1)OC(F)(F)O2 (single isomer, unassigned) [76 (P1)]

RLUs: ΔF508-CFTR-HRP trafficking data normalized to the vehicle treated control (0.3% DMSO): A (RLU 5.0 μM-10 μM)
SMILES: C[C@H](Oc1cc(-n2nc(C(F)(F)F)c3c2[C@H](OC[C@H]2CC[C@H](C(=O)O)CC2)CCC3)cnc1F)c1ccc2c(c1)OC(F)(F)O2 (single isomer, unassigned) [82 (P2)]

RLUs: ΔF508-CFTR-HRP trafficking data normalized to the vehicle treated control (0.3% DMSO): C (RLU 0.0 μM-3.5 μM)
SMILES: C[C@@H](Oc1cc(-n2nc(C(F)(F)F)c3c2N(CC24CC(C(=O)O)(C2)C4)CCC3)cnn1)c1cc2c(cn1)OC(F)(F)O2 (single isomer, unassigned) [Example 1]

RLUs: ΔF508-CFTR-HRP trafficking data normalized to the vehicle treated control (0.3% DMSO): C (RLU 0.0 μM-3.5 μM)
SMILES: C[C@H](Nc1cccc(-n2nc(C(F)(F)F)c3c2[C@@H](OC24CC(C(=O)O)(C2)C4)CCC3)c1)c1cc2c(cc1F)OC(F)(F)O2 (single isomer, unassigned) [97 (P1)]
